Our source for the IC50 values is BindingDB's records for doi:10.1016/j.bmcl.2010.10.033 (Glaxosmithkline, 2010).

For orientation: IC50 means the concentration needed to halve the response being measured.

Experiment [1] in a line: Antagonist activity at CCR5 in HOS cells assessed as inhibition of HIV-1 Ba-L infection.
Experiment [2] is described as follows: Antagonist activity at CCR5 in human peripheral blood lymphocytes cells assessed as inhibition of HIV-1 Ba-L infection.

With `C=CCN(C(=O)Cc1ccc(C(F)(F)F)cc1)C1CCN(CCC2(c3cccc(F)c3)CCN(C(=O)c3cc(S(=O)(=O)NC(C)(C)C)c(F)cc3Cl)CC2)CC1` [N-allyl-N-(1-(2-(1-(5-(N-tert-butylsulfamoyl)-2-chloro-4-fluorobenzoyl)-4-(3-fluorophenyl)piperidin-4-yl)ethyl)piperidin-4-yl)-2-(4-(trifluoromethyl)phenyl)acetamide], the concentration for half-maximal inhibition (IC50) amounted to 3.3 nM in experiment [1] and 53 nM in experiment [2].

For the compound `CCCCN(C(=O)NCc1ccc(C#N)cc1)C1CCN(CCC2(c3cccc(F)c3)CCN(C(=O)c3cc(S(=O)(=O)NC(C)(C)C)c(F)cc3Cl)CC2)CC1` [N-tert-butyl-5-(4-(2-(4-(1-butyl-3-(4-cyanobenzyl)ureido)piperidin-1-yl)ethyl)-4-(3-fluorophenyl)piperidine-1-carbonyl)-4-chloro-2-fluorobenzenesulfonamide], the IC50 in experiment [1] was found to be 2.6 nM; in experiment [2] it was 11 nM.

In the case of `C=CCN(C(=O)NCc1ccc(C(=O)OC)cc1)C1CCN(CCC2(c3cccc(F)c3)CCN(C(=O)c3cc(S(=O)(=O)NC(C)(C)C)c(F)cc3Cl)CC2)CC1` [methyl 4-((3-allyl-3-(1-(2-(1-(5-(N-tert-butylsulfamoyl)-2-chloro-4-fluorobenzoyl)-4-(3-fluorophenyl)piperidin-4-yl)ethyl)piperidin-4-yl)ureido)methyl)benzoate], the IC50 in experiment [1] was 26 nM; in experiment [2] it was 146 nM.
